{
  "source": "patent US12201610B2",
  "about": "“Compositions comprising aticaprant” (Janssen Pharmaceuticals, Inc., priority 2022, dated 2025)",
  "key": {"[1]": {"system": "subjects with MDD", "assay": "SATE score (Example 6)", "assay_type": "in vivo, human", "details": "Treatment Week 6, aticaprant 10 mg", "text": "SATE is a one to three questionnaire administered when the subject is unable to complete other evaluations, i.e., away from the clinical setting such as at home. SATE is useful to evaluate improvement or deterioration of depressive symptoms of the subjects over a short period of time. […] See, Table 6.\niv. To investigate the effect of aticaprant on symptoms of depression using the Clinical Global Impression-Severity (CGI-S), the patient reported Symptoms of Major Depressive Disorder Scale (SMDDS) and the self-assessment of treatment experience (SATE).\n• (i) Depression: Montgomery-Åsberg Depression Rating Scale (MADRS), Clinical Global Impression-Severity (CGI-S), Symptoms of Major Depressive Disorder Scale (SMDDS), and Self-assessment of treatment experience (SATE) • (ii) Anhedonia: Snaith-Hamilton Pleasure Scale (SHAPS) • (iii) Anxiety: Structured Interview Guide for the Hamilton Anxiety scale (SIGH-A) and HAM-A6 • (iv) Effects on Cognition: The Cognitive and Physical Functioning Questionnaire (CPFQ) • (v) Safety assessments"}, "[2]": {"system": "subjects with MDD", "assay": "Treatment-emergent adverse events, full safety analysis set (Example 6)", "assay_type": "in vivo, human"}, "[3]": {"details": "TEAE in >= 5% of subjects, Treatment Period, Full Safety Analysis Set, aticaprant 10 mg (N = 85), Table 40"}, "[4]": {"details": "TEAE of Special Interest, Treatment Period, Full Safety Analysis Set, aticaprant 10 mg (N = 85), Table 41"}, "[5]": {"details": "Treatment Period, Full Safety Analysis Set, aticaprant 10 mg (N = 85)"}},
  "data": [
    {"smiles": "Cc1cc(C)cc(C2CCCN2Cc2ccc(Oc3ccc(C(N)=O)cc3F)cc2)c1", "note": "(stereo not drawn) [aticaprant, 3-fluoro-4-4-2-(3,5-dimethylphenyl)pyrrolidin-1-yl-methylphenoxybenzamide]", "values": [
      {"measurement": "SATE: Depression Worsened (Much worse)", "setting": "[1]; n = 0", "result": 0, "unit": "subjects"},
      {"measurement": "SATE: Depression Worsened (Slightly worse)", "setting": "[1]; n = 0", "result": 0, "unit": "subjects"},
      {"measurement": "SATE: Depression Worsened (Very much worse)", "setting": "[1]; n = 0", "result": 0, "unit": "subjects"},
      {"measurement": "SATE: Depression Much improved", "setting": "[1]; n = 21", "result": 6, "unit": "subjects"},
      {"measurement": "SATE: Depression Slightly improved", "setting": "[1]; n = 21", "result": 15, "unit": "subjects"},
      {"measurement": "SATE: Depression Very Much Improved", "setting": "[1]; n = 21", "result": 0, "unit": "subjects"},
      {"measurement": "SATE: Overall Depression (Got worse)", "setting": "[1]; n = 30", "result": 0, "unit": "subjects"},
      {"measurement": "SATE: Overall Depression (Improved)", "setting": "[1]; n = 30", "result": 21, "unit": "subjects"},
      {"measurement": "SATE: Overall Depression (Not changed)", "setting": "[1]; n = 30", "result": 9, "unit": "subjects"},
      {"measurement": "Diarrhea, %", "setting": "[2]; [3]", "result": 8, "unit": "%"},
      {"measurement": "Gastrointestinal Disorders, %", "setting": "[2]; [3]", "result": 14, "unit": "%"},
      {"measurement": "Headache, %", "setting": "[2]; [3]", "result": 12, "unit": "%"},
      {"measurement": "Infections And Infestations, %", "setting": "[2]; [3]", "result": 15, "unit": "%"},
      {"measurement": "Nasopharyngitis, %", "setting": "[2]; [3]", "result": 6, "unit": "%"},
      {"measurement": "Nervous System Disorders, %", "setting": "[2]; [3]", "result": 15, "unit": "%"},
      {"measurement": "Pruritus, %", "setting": "[2]; [3]", "result": 6, "unit": "%"},
      {"measurement": "Skin And Subcutaneous Tissue Disorders, %", "setting": "[2]; [3]", "result": 7, "unit": "%"},
      {"measurement": "Total no. Subjects with Adverse Events, %", "setting": "[2]; [3]", "result": 47, "unit": "%"},
      {"measurement": "Abdominal Pain, %", "setting": "[2]; [4]", "result": 1.2, "unit": "%"},
      {"measurement": "Diarrhea, %", "setting": "[2]; [4]", "result": 8.2, "unit": "%"},
      {"measurement": "Dyspepsia, %", "setting": "[2]; [4]", "result": 1.2, "unit": "%"},
      {"measurement": "Gastrointestinal Disorders, %", "setting": "[2]; [4]", "result": 10.6, "unit": "%"},
      {"measurement": "Pruritus, %", "setting": "[2]; [4]", "result": 5.9, "unit": "%"},
      {"measurement": "Skin And Subcutaneous Tissue Disorders, %", "setting": "[2]; [4]", "result": 5.9, "unit": "%"},
      {"measurement": "Total no. Subjects with Adverse Events of Special Interest, %", "setting": "[2]; [4]", "result": 15.3, "unit": "%"},
      {"measurement": "Subjects with TEAE leading to discontinuation of agent, %", "setting": "[2]; [5]", "result": "(1.2) %"},
      {"measurement": "Total subjects affected by non-serious adverse events, %", "setting": "[2]; [5]", "result": "(27.1%)"},
      {"measurement": "Subjects with 1 or more TEAE, %", "setting": "[2]; Treatment Period, Full Safety Analysis Set, aticaprant 10 mg (N = 85), Table 39", "result": "(47.1) %"},
      {"measurement": "Subjects with drug-related TEAE, %", "setting": "[2]; Treatment Period, Full Safety Analysis Set, aticaprant 10 mg (N = 85), possible, probable, very likely", "result": "(23.5) %"},
      {"measurement": "subjects who discontinued during the treatment period due to TEAEs", "setting": "[2]; due to diarrhea, nausea, vomiting and headache", "result": 1, "unit": "subject"},
      {"measurement": "subjects with at least one TEAE during the treatment period", "setting": "[2]; full safety analysis set, 40/85 subjects", "result": 47.1, "unit": "%"},
      {"measurement": "patients with acute cholecystitis", "setting": "[2]; treatment period", "result": 0, "unit": "patients"},
      {"measurement": "subjects with pruritus (TEAE of special interest)", "setting": "[2]; treatment period, 5/85 subjects", "result": 5.9, "unit": "%"},
      {"measurement": "subjects with diarrhea (TEAE)", "setting": "[2]; treatment period, 7/85 subjects", "result": 8.2, "unit": "%"},
      {"measurement": "subjects with headache (TEAE)", "setting": "[2]; treatment period, 10/85 subjects", "result": 11.8, "unit": "%"},
      {"measurement": "subjects with TEAEs of special interest", "setting": "[2]; treatment period, 13/85 subjects", "result": 15.3, "unit": "%"}
    ]}
  ]
}
